Test results taken from patent US20150105252A1, “SUBSTITUTED PYRAZOLES AS HERBICIDES” (E I DU PONT DE NEMOURS AND COMPANY, priority 2013, published 2015).

How the values were obtained:
nutsedge, yellow = experiment: Test C preemergence; assay type: in vivo, Cyperus esculentus; settings: for Plant response rating (scale of 0 to 100), Nutsedge, Yellow: Preemergence, 250 g ai/ha; for Nutsedge, Yellow plant response rating / Plant response rating, Nutsedge, Yellow: preemergence; for Plant response rating, Nutsedge, Yellow: scale 0 to 100, 0 = no effect, 100 = complete control
Excerpt: (§1) Seeds of plant species selected from blackgrass (Alopecurus myosuroides), ryegrass, Italian (Italian ryegrass, Lolium multiflorum), wheat (winter wheat, Triticum aestivum), galium (catchweed bedstraw, Galium aparine), corn (Zea mays), crabgrass, large (large crabgrass, Digitaria sanguinalis), foxtail, giant (giant foxtail, Setaria faberii), johnsongrass (Sorghum halepense), lambsquarters (Chenopodium album), morningglory (Ipomoea coccinea), nutsedge, yellow (yellow nutsedge, Cyperus esculentus), pigweed (redroot pigweed, Amaranthus retroflexus), ragweed (common ragweed, Ambrosia elation), soybean (Glycine max), barnyardgrass (Echinochloa crus-galli), oilseed rape (Brassica napus), waterhemp (common waterhemp, Amaranthus rudis), oat, wild (wild oat, Avena fatua), kochia (Kochia scoparia), Surinam grass (Brachiaria decumbens), foxtail, green (green foxtail, Setaria viridis), goosegrass (Eleusine indica), bromegrass, downy (downy bromegrass, Bromus tectorum), nightshade (eastern black nightshade, Solanum ptycanthum), cocklebur (common cocklebur, Xanthium strumarium), cupgrass, woolly (woolly cupgrass, Eriochloa villosa), bermudagrass (Cynodon dactylon), sunflower, (common oilseed sunflower, Helianthus annuus), Russian thistle (Salsola kali), and velvetleaf (Abutilon theophrasti) were planted into a blend of loam soil and sand and treated preemergence with test chemicals formulated in a non-phytotoxic solvent mixture which included a surfactant.
(§2) At the same time, plants selected from these crop and weed species and also chickweed (common chickweed, Stellaria media), canarygrass (littleseed canarygrass, Phalaris minor), and deadnettle (henbit deadnettle, Lamium amplexicaule), were planted in pots containing Redi-Earth® planting medium (Scotts Company, 14111 Scottslawn Road, Marysville, Ohio 43041) comprising spaghnum peat moss, vermiculite, wetting agent and starter nutrients and treated with postemergence applications of test chemicals formulated in the same manner. Plants ranged in height from 2 to 18 cm (1- to 4-leaf stage) for postemergence treatments. Treated plants and controls were maintained in a greenhouse for 13 to 15 days, after which time all species were compared to controls and visually evaluated. Plant response ratings, summarized in Table C, are based on a scale of 0 to 100 where 0 is no effect and 100 is complete control. A dash (-) response means no test result.

corn = experiment: Test A postemergence; assay type: in vivo, Zea mays
Outline: (§3)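 Greenhouse test in loam soil/sand blend; compounds formulated in non-phytotoxic solvent with surfactant, applied as preemergence directed soil spray or postemergence to plants 2–10 cm tall at one- to two-leaf stage. Injury rated visually versus untreated controls after approximately 10 days on a 0 (no effect) to 100 (complete control) scale.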

johnsongrass = experiment: Test C preemergence; assay type: in vivo, Sorghum halepense; settings: for Plant response rating (scale of 0 to 100), Johnsongrass: Preemergence, 250 g ai/ha; for Johnsongrass plant response rating / Plant response rating, Johnsongrass: preemergence; for Plant response rating, Johnsongrass: scale 0 to 100, 0 = no effect, 100 = complete control
Outline: (§4)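 Visual control ratings on a 0–100 scale (100 = complete control) made against untreated controls after 13 to 15 days in greenhouse. Compounds applied in surfactant-containing solvent mixture, either preemergence to loam/sand-sown seeds or postemergence to 1- to 4-leaf plants (2–18 cm) in peat medium.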

galium = experiment: Test C preemergence; assay type: in vivo, Galium aparine; settings: for Plant response rating (scale of 0 to 100), Galium: Preemergence, 250 g ai/ha; for Galium plant response rating / Plant response rating, Galium: preemergence; for Plant response rating, Galium: scale 0 to 100, 0 = no effect, 100 = complete control
Excerpt: as §1, §2

sedge, umbrella = experiment: Test B flood; assay type: in vivo, Cyperus difformis; settings: 250 g ai/ha, visual rating on 0 to 100 scale (0 no effect, 100 complete control), 13 to 15 days
Outline: (§5)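 At two leaves, seedlings received the test compound via the paddy water, pots having been flooded 3 cm over the soil surface and kept so. Greenhouse-held for 13 to 15 days, then judged by eye against controls on a scale running 0 (no effect) to 100 (complete control).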

foxtail, giant [1] = experiment: Test A preemergence; assay type: in vivo, Setaria faberii; settings: preemergence
Outline: as §3

soybean = experiment: Test C preemergence; assay type: in vivo, Glycine max; settings: for Plant response rating (scale of 0 to 100), Soybean: Preemergence, 250 g ai/ha; for Soybean plant response rating / Plant response rating, Soybean: preemergence; for Plant response rating, Soybean: scale 0 to 100, 0 = no effect, 100 = complete control
Outline: as §4

barnyardgrass = experiment: Test C preemergence; assay type: in vivo, Echinochloa crus-galli; settings: for Plant response rating (scale of 0 to 100), Barnyardgrass: Preemergence, 250 g ai/ha; for Barnyardgrass plant response rating / Plant response rating, Barnyardgrass: preemergence; for Plant response rating, Barnyardgrass: scale 0 to 100, 0 = no effect, 100 = complete control
Excerpt: as §1, §2

foxtail, giant [2] = experiment: Test A postemergence; assay type: in vivo, Setaria faberii
Outline: as §3

wheat = experiment: Test A preemergence; assay type: in vivo, Triticum aestivum; settings: preemergence
Outline: as §3

ragweed = experiment: Test C preemergence; assay type: in vivo, Ambrosia elation; settings: for Plant response rating (scale of 0 to 100), Ragweed: Preemergence, 250 g ai/ha; for Ragweed plant response rating / Plant response rating, Ragweed: preemergence; for Plant response rating, Ragweed: scale 0 to 100, 0 = no effect, 100 = complete control
Outline: as §4

ryegrass, Italian = experiment: Test C preemergence; assay type: in vivo, Lolium multiflorum; settings: for Plant response rating (scale of 0 to 100), Ryegrass, Italian: Preemergence, 250 g ai/ha; for Ryegrass, Italian plant response rating / Plant response rating, Ryegrass, Italian: preemergence; for Plant response rating, Ryegrass, Italian: scale 0 to 100, 0 = no effect, 100 = complete control
Excerpt: as §1, §2

morningglory = experiment: Test A postemergence; assay type: in vivo, Ipomoea spp.
Outline: as §3

ducksalad = experiment: Test B flood; assay type: in vivo, Heteranthera limosa; settings: 250 g ai/ha, visual rating on 0 to 100 scale (0 no effect, 100 complete control), 13 to 15 days
Outline: as §5

[3] = 31 g ai/ha, visual rating, scale 0 to 100 (0 no effect, 100 complete control), 13 to 15 days
[4] = 125 g ai/ha, scale 0 to 100, 0 is no effect, 100 is complete control
[5] = Postemergence, 500 g ai/ha, visual rating after approx. 10 days, 0 to 100 scale (0 no effect, 100 complete control)
[6] = postemergence, 125 g ai/ha, about 10 days, visual rating on 0 to 100 scale (0 no effect, 100 complete control)
[7] = 125 g ai/ha, visual injury, 0 to 100 scale, approx. 10 days
[8] = 500 g ai/ha, visual injury after approx. 10 days, 0 to 100 scale (0 no effect, 100 complete control)
[9] = 31 g ai/ha, scale 0 to 100 (0 no effect, 100 complete control), 13 to 15 days
[10] = 62 g ai/ha, scale 0 to 100 (0 no effect, 100 complete control), 13 to 15 days
[11] = Postemergence, 500 g ai/ha, 0 to 100 scale (0 no effect, 100 complete control)

Structure (SMILES)	Plant response rating (scale of 0 to 100), Nutsedge, Yellow (nutsedge, yellow)	Nutsedge, Yellow plant response rating (nutsedge, yellow; [3])	Corn plant response rating (corn; [6])	Plant response rating (scale of 0 to 100), Johnsongrass (johnsongrass)	Johnsongrass plant response rating (johnsongrass; [3])	Johnsongrass plant response rating (johnsongrass; [4])	Plant response rating (scale of 0 to 100), Galium (galium)	Plant response rating, Sedge, Umbrella (sedge, umbrella)	Foxtail, Giant plant response rating (foxtail, giant [1]; [7])	Foxtail, Giant plant response rating (foxtail, giant [1]; [8])	Plant response rating (scale of 0 to 100), Soybean (soybean)	Soybean plant response rating (soybean; [3])	Plant response rating (scale of 0 to 100), Barnyardgrass (barnyardgrass)	Barnyardgrass plant response rating (barnyardgrass; [9])	Foxtail, Giant plant response rating (foxtail, giant [2]; [6])	Plant response rating (scale of 0 to 100), Ragweed (ragweed)	Ragweed plant response rating (ragweed; [3])	Plant response rating (scale of 0 to 100), Ryegrass, Italian (ryegrass, Italian)	Ryegrass, Italian plant response rating (ryegrass, Italian; [3])	Plant response rating, Ducksalad (ducksalad)	also measured
CCCc1cc(C(=O)NCC)nn1Cc1ccnc(C(F)(F)F)c1 [Compound 95]	90	50	80	100	60	95	100	75	100	100	98	80	100	100	100	100	80	100	50	85	Plant response rating, Nutsedge, Yellow (nutsedge, yellow; 62 g ai/ha, 13 to 15 days): 80; Nutsedge, Yellow plant response rating (nutsedge, yellow; [4]): 85; Corn plant response rating (corn; [5]): 100; Plant response rating, Johnsongrass (johnsongrass; 62 g ai/ha, 13 to 15 days): 85; Galium plant response rating (galium; [3]): 100; Plant response rating, Galium (galium; 62 g ai/ha, 13 to 15 days): 100; Galium plant response rating (galium; [4]): 100; Plant response rating, Soybean (soybean; 62 g ai/ha, 13 to 15 days): 90; Soybean plant response rating (soybean; [4]): 95; Plant response rating, Barnyardgrass (barnyardgrass; 62 g ai/ha, 13 to 15 days): 100; Barnyardgrass plant response rating (barnyardgrass; [4]): 100; Foxtail, Giant plant response rating (foxtail, giant [2]; [5]): 100; Wheat plant response rating (wheat; [7]): 70; Wheat plant response rating (wheat; [8]): 100; Plant response rating, Ragweed (ragweed; 62 g ai/ha, 13 to 15 days): 95; Ragweed plant response rating (ragweed; [4]): 100; Plant response rating, Ryegrass, Italian (ryegrass, Italian; 62 g ai/ha, 13 to 15 days): 85; Ryegrass, Italian plant response rating (ryegrass, Italian; [4]): 95; Morningglory plant response rating (morningglory; [5]): 100; Morningglory plant response rating (morningglory; [6]): 90
CCc1cc(C(=O)NC2CC2)nn1Cc1ccnc(OC(F)F)c1 [Compound 98]	95	30	80	100	65	100	100	80	100	100	98	30	100	30	90	100	95	100	30	70	Plant response rating, Nutsedge, Yellow (nutsedge, yellow; 62 g ai/ha, 13 to 15 days): 75; Corn plant response rating (corn; [5]): 90; Plant response rating, Johnsongrass (johnsongrass; 62 g ai/ha, 13 to 15 days): 70; Galium plant response rating (galium; [3]): 100; Plant response rating, Galium (galium; 62 g ai/ha, 13 to 15 days): 100; Galium plant response rating (galium; [4]): 100; Plant response rating, Soybean (soybean; 62 g ai/ha, 13 to 15 days): 70; Soybean plant response rating (soybean; [4]): 98; Plant response rating, Barnyardgrass (barnyardgrass; 62 g ai/ha, 13 to 15 days): 100; Barnyardgrass plant response rating (barnyardgrass; [4]): 100; Foxtail, Giant plant response rating (foxtail, giant [2]; [5]): 90; Wheat plant response rating (wheat; [7]): 30; Wheat plant response rating (wheat; [8]): 90; Plant response rating, Ragweed (ragweed; 62 g ai/ha, 13 to 15 days): 100; Ragweed plant response rating (ragweed; [4]): 100; Plant response rating, Ryegrass, Italian (ryegrass, Italian; 62 g ai/ha, 13 to 15 days): 80; Ryegrass, Italian plant response rating (ryegrass, Italian; [4]): 95; Morningglory plant response rating (morningglory; [5]): 90; Morningglory plant response rating (morningglory; [6]): 90
CCONC(=O)c1cc(CC)n(Cc2cc(C(F)(F)F)no2)n1 [Compound 125]	55	0	30	10	0	5	90	50	80	100	15	5	100	5	30	75	5	95	0	60	Nutsedge, Yellow plant response rating (nutsedge, yellow; [10]): 5; Nutsedge, Yellow plant response rating (nutsedge, yellow; [4]): 15; Corn plant response rating (corn; [11]): 90; Johnsongrass plant response rating (johnsongrass; [10]): 0; Galium plant response rating (galium; [3]): 80; Galium plant response rating (galium; [10]): 85; Galium plant response rating (galium; [4]): 100; Soybean plant response rating (soybean; [10]): 5; Soybean plant response rating (soybean; [4]): 10; Barnyardgrass plant response rating (barnyardgrass; [10]): 50; Barnyardgrass plant response rating (barnyardgrass; [4]): 80; Foxtail, Giant plant response rating (foxtail, giant [2]; [11]): 90; Ragweed plant response rating (ragweed; [10]): 10; Ragweed plant response rating (ragweed; [4]): 55; Ryegrass, Italian plant response rating (ryegrass, Italian; [10]): 30; Ryegrass, Italian plant response rating (ryegrass, Italian; [4]): 20
CCOc1cc(C(=O)NC2CC2)nn1Cc1ccnc(OC(F)F)c1 [Compound 133]	85	20	60	98	40		100	90	100	100	95	50	100	65	100	100	10	95	35	90	Nutsedge, Yellow plant response rating (nutsedge, yellow; [10]): 25; Plant response rating, Nutsedge, Yellow (nutsedge, yellow; 125 g ai/ha, 13 to 15 days): 70; Corn plant response rating (corn; [11]): 80; Johnsongrass plant response rating (johnsongrass; [10]): 85; Plant response rating, Johnsongrass (johnsongrass; 125 g ai/ha, 13 to 15 days): 90; Galium plant response rating (galium; [10]): 95; Plant response rating, Galium (galium; 125 g ai/ha, 13 to 15 days): 98; Soybean plant response rating (soybean; [10]): 40; Plant response rating, Soybean (soybean; 125 g ai/ha, 13 to 15 days): 85; Barnyardgrass plant response rating (barnyardgrass; [10]): 60; Plant response rating, Barnyardgrass (barnyardgrass; 125 g ai/ha, 13 to 15 days): 100; Foxtail, Giant plant response rating (foxtail, giant [2]; [11]): 100; Ragweed plant response rating (ragweed; [10]): 60; Plant response rating, Ragweed (ragweed; 125 g ai/ha, 13 to 15 days): 100; Ryegrass, Italian plant response rating (ryegrass, Italian; [10]): 85; Plant response rating, Ryegrass, Italian (ryegrass, Italian; 125 g ai/ha, 13 to 15 days): 90
